Reference: PMC8533089, “Characteristics of Neurokinin-3 Receptor and Its Binding Sites by Mutational Analysis” (Biology, 2021)
Like-named read-outs stand apart in the source and are kept apart here. One block for each molecule: values may come before it. Where no end group is shown, it is not given here.

Experiments:
FSH levels = details: daily oral dosing throughout the menstrual cycle; cited from earlier work
From the text: (§1) The effect of NKB/NKF peptides on gonadotropin secretion in fish is already well established. The first indication that NKB is widely expressed in fish species and has a stimulatory reproductive effect was shown in zebrafish, goldfish, and tilapia. […] Osetanant re ...

FSH plasma levels = assay: In vivo effect of NKB antagonists on FSH plasma levels (ELISA); parameters: species or system adult male tilapia (Oreochromis niloticus); details: antagonist 100 µg/kg BW IP, sGnRHa 10 µg/kg BW after 0.5 h; n = 10
Experimental: (§2) The levels of FSH, LH and GH in the plasma were measured by specific competitive enzyme-linked immunosorbent assay (ELISA), developed for tilapia, based on recombinant gonadotropins or GH that were created by using the yeast Pichia pastoris. For the ELISAs, we used primary antibody antisera against GH [51], FSHβ [52], or against rtLHβ [53], and rtFSHβα [52], rtLHβ [53] or tiGH for the standard curves. Sensitivity for the plasma measurements were 15.84 pg/mL for LH, 0.24 pg/mL for FSH and 30.0 pg/mL for GH. The inter-assay coefficient of variation (CV) was 14.8, 12.5, and 13.0%, while intra-assay CV was 7.2, 8.0, and 8.0% for LH, FSH and GH, respectively.
Adult male tilapia (BW 89.29 ± 32.93 g; gonado-somatic index (GSI) 0.24% ± 0.40%) were injected IP (intraperitoneal) with NKB antagonists, SB-222200 or Osanetant (100 µg/kg BW), and after 0.5 h, a second injection of sGnRHa (10 µg/kg BW) was added. Control groups were injected with sGnRHa ([DAla^6, Pro^9-Net]-mammalian GnRH; Bachem, Budendorf, Switzerland) 10 µg/kg BW) as a positive control. The fish were bled from the caudal blood vessels into heparinized syringes 0, 0.5, 2, 6 and 24 h after injection. This time course is according to standard protocols used previously to test the effect of GnRH on circulating levels of LH, FSH, and GH in tilapia. […]

LH plasma levels = assay: In vivo effect of NKB antagonists on LH plasma levels (ELISA); parameters: species or system adult male tilapia (Oreochromis niloticus); details: antagonist 100 µg/kg BW IP, then sGnRHa 10 µg/kg BW after 0.5 h; n = 10
Experimental: as §2
Adult male tilapia (BW 89.29 ± 32.93 g; gonado-somatic index (GSI) 0.24% ± 0.40%) were injected IP (intraperitoneal) with NKB antagonists, SB-222200 or Osanetant (100 µg/kg BW), and after 0.5 h, a second injection of sGnRHa (10 µg/kg BW) was added. Control groups were injected with sGnRHa ([DAla^6, Pro^9-Net]-mammalian GnRH; Bachem, Budendorf, Switzerland) 10 µg/kg BW) as a positive control. The fish were bled from the caudal blood vessels into heparinized syringes 0, 0.5, 2, 6 and 24 h after injection. This time course is according to standard protocols used previously to test the effect of GnRH on circulating levels of LH, FSH, and GH in tilapia. Blood samples were collected from the caudal vasculature and centrifuged (3200 rpm for 30 min at 4 °C) (Centrifuge: Fresco 17, Rotor: 75003424, Thermo Scientific™, Langenselbold Germany) to obtain plasma samples, which were stored at −20 °C until assayed. Three independent experiments were carried out for the in-vivo studies.

tiTac3Ra = tiTac3Ra (Oreochromis niloticus, UniProt A0A075QPN8); assay: CRE-Luc antagonist assay, wild-type receptor, COS-7; format: cell-based, tilapia (Oreochromis niloticus); details: for IC50: antagonist 0.001–1000 μM added 10 min before peptide, COS-7, CRE-Luc
Experimental: (§3) In order to study the signaling pathways of the mutant tiTac3Ra, the entire coding regions of tiTac3Ra (GenBank accession no. KF471674), and both of the mutant receptors were inserted into pcDNA3.1 (Invitrogen, Massachusetts, United States). We used a sensitive luciferase (LUC) reporter gene assay. […] Transient transfection, cell procedures and stimulation protocols followed the procedures previously described. Briefly, 3 μg of each construct, together with 3 μg of a luciferase reporter plasmid were transiently transfected into COS-7 cells (American Type Culture Collection, Manassas, VA, USA). Forty-eight hours after transfection, cells transfected with Tac3Ra plasmid fused with GFP were applied with an Hoechst dye (Invitrogen, Massachusetts, United States; diluted 1:1000) in order to mark nuclei in the culture for transfection analysis.
Non-peptide molecules, SB-222200 (Sigma, Merck, Darmstadt, Germany) and Osanetant (Axon Medchem, Reston, VA, USA), known to antagonize mammalian NK3R [49] were studied for their ability to antagonize tiTac3Ra, which was activated with a fixed dose of the native ligands (10 nM tiNKB or tiNKF), combined with increasing doses of the antagonists (0.001–1000 μM). The antagonists were added 10 min prior to the addition of the peptides. IC50 values were calculated from concentration response curves by means of computerized nonlinear curve-fitting with Prism version 9 software (GraphPad, San Diego, CA, USA). All experiments were repeated at least 3 times using cells from independent transfections, each performed in triplicate.
NKB antagonists, SB-222200 (Figure 7A) and Osanetant (Figure 7B) were added in increasing concentrations (0.001–1000 μM) to transfected COS-7 that expressed tiTac3Ra. Ten minutes after the induction of the antagonists, the ligand, tiNKB or tiNKF (10 nM) was added to the media.

FSH and LH release = details: in vivo and in vitro; cited from earlier work
From the text: as §1

tiTac3Ra mutant M289A = assay: CRE-Luc receptor transactivation assay, M289A mutant, COS-7; format: cell-based, tilapia (Oreochromis niloticus)
From the text: (§4) The expression vector for tilapia tiTac3Ra (GenBank accession no. KF471674) was modified with the Stratagene QuikChange mutagenesis kit (Stratagene, La Jolla, CA, USA), according to the manufacturer’s instructions using two complementary primers (Table 1). The procedure included 18 PCR cycles as specified by the manufacturer’s manual, and the use of Pfu polymerase for the reaction. The mutated construct was then digested with the restriction enzyme DpnI, which is specific to methylated and hemi-methylated DNA, to digest the template and to select the mutation-containing synthesized DNA. The vector was then transfected into XL1 competent cells (E.coli). Two colonies were sequenced and confirmed to contain the mutation without any undesired misincorporation of nucleotides.
(§5) In order to study the signaling pathways of the mutant tiTac3Ra, the entire coding regions of tiTac3Ra (GenBank accession no. KF471674), and both of the mutant receptors were inserted into pcDNA3.1 (Invitrogen, Massachusetts, United States). We used a sensitive luciferase (LUC) reporter gene assay. […]
(§6) Cells transfected with the tiTac3Ra construct and luciferase reporter plasmid were treated with tilapia NKB (tiNKB) and tiNKF at increasing doses (0.2–1000 nM). Luciferase activity (Luc) was measured, and compared to basal treatment, and the maximal effect (Luc fold activation) was calculated for each treatment.

tiTac3Ra mutant F251A = assay: CRE-Luc receptor transactivation assay, F251A mutant, COS-7; format: cell-based, tilapia (Oreochromis niloticus)
From the text: as §4, §5, §6

[1] = target: native tilapia Tac3Ra (WT); assay: CRE-Luc receptor transactivation assay, wild-type receptor, COS-7; format: cell-based, tilapia (Oreochromis niloticus)
Experimental: as §3, §6

[2] = target: tiTac3Ra M289A mutant (Nile tilapia (Oreochromis niloticus))
[3] = target: tilapia Tachykinin 3 receptor a (tiTac3Ra), wild type (Nile tilapia (Oreochromis niloticus))
[4] = target: tiTac3Ra F251A mutant (Nile tilapia (Oreochromis niloticus))

tiTac3Ra, sequence (A0A075QPN8 entry or part of it): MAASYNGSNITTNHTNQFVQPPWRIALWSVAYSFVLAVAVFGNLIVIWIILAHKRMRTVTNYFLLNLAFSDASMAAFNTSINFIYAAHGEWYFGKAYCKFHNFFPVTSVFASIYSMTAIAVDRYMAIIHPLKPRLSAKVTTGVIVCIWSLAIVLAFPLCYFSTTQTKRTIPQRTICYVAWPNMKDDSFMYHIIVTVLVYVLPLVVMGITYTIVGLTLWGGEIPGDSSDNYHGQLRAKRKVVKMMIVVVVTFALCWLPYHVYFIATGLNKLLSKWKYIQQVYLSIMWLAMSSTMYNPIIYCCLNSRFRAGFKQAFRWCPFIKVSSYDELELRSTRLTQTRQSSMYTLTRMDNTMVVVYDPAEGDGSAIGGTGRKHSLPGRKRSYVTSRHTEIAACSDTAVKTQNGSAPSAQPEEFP

Molecule: Cc1nsc(-c2nnc3n2CCN(C(=O)c2ccc(F)cc2)[C@@H]3C)n1 [ESN364]
FSH levels (FSH levels): did not alter FSH levels

IC50 (tiTac3Ra; 10 nM tiNKB, read-out: IC50 versus tiNKB): 212000 nM
IC50 (tiTac3Ra; 10 nM tiNKF, read-out: IC50 versus tiNKF): 122000 nM
inhibitory effect on Tac3Ra activation (tiTac3Ra; in words): strong inhibitory effect
Molecule: CC(=O)N(C)C1(c2ccccc2)CCN(CCC[C@]2(c3ccc(Cl)c(Cl)c3)CCCN(C(=O)c3ccccc3)C2)CC1 [Osanetant]
FSH levels, 2 h post injection, combination with sGnRHa (FSH plasma levels): increased FSH levels
LH release, combination with sGnRHa (LH plasma levels): no inhibitory effects on LH plasma levels

Molecule: Succ-Asp-Ile-Phe-N(Me)Ile-Gly-Leu-Met-NH2 [tiNKB analog, tiNKB analog (Succ-Asp-Ile-Phe-N(Me)Ile-Gly-Leu-Met-NH2)]
FSH and LH release (FSH and LH release): significantly increased FSH and LH release both in-vivo and in-vitro

Molecule: Succ-Asp-Ile-Phe-N(Me)Val-Gly-Leu-Met-NH2 [zfNKBa analog, zfNKBa analog (Succ-Asp-Ile-Phe-N(Me)Val-Gly-Leu-Met-NH2)]
FSH and LH release (FSH and LH release): significantly increased FSH and LH release both in-vivo and in-vitro

Molecule: Succ-Asp-Phe-N(Me)Val-Gly-Leu-Met-NH2 [zfNKBb analog, zfNKBb analog (Succ-Asp-Phe-N(Me)Val-Gly-Leu-Met-NH2)]
FSH and LH release (FSH and LH release): significantly increased FSH and LH release both in-vivo and in-vitro

Molecule: Succ-Asp-Ser-Phe-N(Me)Val-Gly-Leu-Met-NH2 [NKF analog, NKF analog (Succ-Asp-Ser-Phe-N(Me)Val-Gly-Leu-Met-NH2)]
FSH and LH release (FSH and LH release): significantly increased FSH and LH release both in-vivo and in-vitro

Molecule: pyroglutaminated [p]-EMDDIFIGLM-NH2 [tiNKB, native tilapia Neurokinin B peptide, synthesized by GL Biochem]
Max effect (Luc fold activation) (tiTac3Ra mutant M289A; M289A, COS-7, CRE-Luc, vs basal, 0.2–1000 nM): 1.71 ± 0.46 Luc fold activation
receptor activity of mutant versus WT (CRE-luciferase) (tiTac3Ra mutant M289A; Met289^7.43Ala, 0.2–1000 nM peptide): substantial decrease in receptor activity
Max effect (Luc fold activation) (tiTac3Ra mutant F251A; F251A, COS-7, CRE-Luc, vs basal, 0.2–1000 nM): 2.0 ± 0.32 Luc fold activation
receptor activity of mutant versus WT (CRE-luciferase) (tiTac3Ra mutant F251A; Phe251^6.44Ala, 0.2–1000 nM peptide): substantial decrease in receptor activity
EC50 ([1]; CRE-Luc, COS-7, 0.2–1000 nM, calculated when max effect >2.0): 2.48 ± 0.05 nM
Min effective dose ([1]; CRE-Luc, COS-7, WT): 0.316 nM
Max effect (Luc fold activation) ([1]; WT, COS-7, CRE-Luc, vs basal, 0.2–1000 nM): 3.36 ± 0.46 Luc fold activation

Max effect (Luc fold activation), CRE-luciferase receptor transactivation in transfected COS-7 cells, peptide 0.2-1000 nM (Luc fold activation) [2]: 1.84
EC50 (nM) of CRE-luciferase receptor transactivation in transfected COS-7 cells, peptide 0.2-1000 nM [3]: 65.2 nM
Max effect (Luc fold activation), CRE-luciferase receptor transactivation in transfected COS-7 cells, peptide 0.2-1000 nM (Luc fold activation) [3]: 3.87
Min effective dose (nM), CRE-luciferase receptor transactivation in transfected COS-7 cells [3]: 0.316 nM
Max effect (Luc fold activation), CRE-luciferase receptor transactivation in transfected COS-7 cells, peptide 0.2-1000 nM (Luc fold activation) [4]: 1.99
Molecule: YNDLDYDSFVGLM-NH2 [Tilapia NKF (neurokinin F)]

Max effect (Luc fold activation), CRE-luciferase receptor transactivation in transfected COS-7 cells, peptide 0.2-1000 nM (Luc fold activation) [2]: 1.71
EC50 (nM) of CRE-luciferase receptor transactivation in transfected COS-7 cells, peptide 0.2-1000 nM [3]: 2.48 nM
Max effect (Luc fold activation), CRE-luciferase receptor transactivation in transfected COS-7 cells, peptide 0.2-1000 nM (Luc fold activation) [3]: 3.36
Min effective dose (nM), CRE-luciferase receptor transactivation in transfected COS-7 cells [3]: 0.316 nM
Max effect (Luc fold activation), CRE-luciferase receptor transactivation in transfected COS-7 cells, peptide 0.2-1000 nM (Luc fold activation) [4]: 2
B1: Tilapia NKB (neurokinin B) (peptide)
peptide: EMDDIFIGLM
HELM: PEPTIDE1{[Glp].M.D.D.I.F.I.G.L.M.[am]}$$$$V2.0
SMILES: CC[C@H](C)[C@H](NC(=O)[C@H](Cc1ccccc1)NC(=O)[C@@H](NC(=O)[C@H](CC(=O)O)NC(=O)[C@H](CC(=O)O)NC(=O)[C@H](CCSC)NC(=O)[C@@H]1CCC(=O)N1)[C@@H](C)CC)C(=O)NCC(=O)N[C@@H](CC(C)C)C(=O)N[C@@H](CCSC)C(N)=O
